Values quoted from earlier work as cited in patent US7691903B2, “Oxidation-sensitive hydrophilic active principle containing composition and use thereof” (L'Oreal, priority 2002, dated 2010).

Conditions: ascorbic acid derivatives; J. Am. Acad. Dermatol., 1996, 34, 29-33

- bioavailability: very low
SMILES: O=C1O[C@H]([C@@H](O)CO)C([O-])=C1OP(=O)([O-])[O-].O=C1O[C@H]([C@@H](O)CO)C([O-])=C1OP(=O)([O-])[O-].[Mg+2].[Mg+2].[Mg+2] [magnesium ascorbyl phosphate]
